Experimental data: patent publication US20260234163A1, “NOVEL COMPOUNDS AND USES THEREOF” (ACELINK THERAPEUTICS, INC., priority 2023, published 2026)
Where two headings read alike, the source gives them in different places.

Columns and labels:
[1] = 21-membered ring
[2] = amide bond, 21-membered ring, HATU/DIEA, DMF

## CCOC(=O)CC1c2ccc3c(c2)CN(CC3)S(=O)(=O)N2CCC(CC2)OCC=CCn2nnc3c(C)c1ccc32 (stereo not drawn)
[1]; from C=CCOC1CCN(S(=O)(=O)N2CCc3ccc(C(CC(=O)OCC)c4ccc5c(nnn5C/C=C/C)c4C)cc3C2)CC1, rcm bond, Grubbs catalyst, DCM, 6.2 mM, 40.0 °C, 19.0 h
  ring closure, yield after HPLC: 89.4%

## CCOC(=O)CC(c1ccc2c(c1)CNCC2)c1ccc2c(nnn2CCCCCN2CCN(C(=O)Oc3ccc([N+](=O)[O-])cc3)CC2)c1C (stereo not drawn)
[1]; the molecule shown is the open-chain precursor, other bond, K2CO3 (microwave), DMF, 10.2 mM, 130.0 °C, 2 steps
  ring closure, yield after HPLC: 72%

## CCOC(=O)CC1c2ccc3c(c2)CN(CC3)C(=O)C2CCN(CCOCCn3nnc4c(C)c1ccc43)CC2 (stereo not drawn)
[2]; from CCOC(=O)CC(c1ccc2c(c1)CNCC2)c1ccc2c(nnn2CCOCCN2CCC(C(=O)O)CC2)c1C, 142.0 mM, 25.0 °C
  ring closure, isolated yield: 38.2%

## CCOC(=O)CC1c2ccc(C)c(c2)CN(C)C(=O)c2ccc(cc2)COCCCn2nnc3c(C)c1ccc32 (stereo not drawn)
[2]; from CCOC(=O)CC(c1ccc(C)c(CNC)c1)c1ccc2c(nnn2CCCOCc2ccc(C(=O)O)cc2)c1C, 46.6 mM, 20.0 °C, 2.0 h
  ring closure, isolated yield: 95.2%

## CCOC(=O)C[C@@H](c1ccc2c(c1)CNCC2)c1ccc2c(nnn2CCCOCC2CCN(C(=O)Oc3c(F)c(F)c(F)c(F)c3F)CC2)c1C
[1]; the molecule shown is the open-chain precursor, other bond, K2CO3/microwave, DMF, 24.7 mM, 120.0 °C
  ring closure, yield after HPLC: 20.9%

## CCOC(=O)CC1c2cc(C)c3c(c2)CN(CC3)C(=O)c2ccc(cc2)COCCCn2nnc3c(C)c1ccc32 (stereo not drawn)
[2]; from CCOC(=O)CC(c1cc(C)c2c(c1)CNCC2)c1ccc2c(nnn2CCCOCc2ccc(C(=O)O)cc2)c1C, 131.5 mM, 20.0 °C, 2.0 h
  ring closure, isolated yield: 77.9%
